Values after ≈ are worked out from the molar mass of the structure shown.
Columns and labels:
Experiment in all cases: Antibacterial activity evaluation test, MIC by CLSI broth microdilution
Format in all cases: cell-based
Settings in all cases: cation-adjusted Mueller Hinton medium, 35° C., 16 to 20 hours
[1] = system: AmpC-derepressed Pseudomonas aeruginosa mutant strain (S-3028)
Method: (§1) The minimum inhibitory concentration (MIC) was measured according to the Clinical and Laboratory Standards Institute (CLSI) standard method by using the following broth microdilution method.
(§2) As bacteria, a Pseudomonas aeruginosa strain ATCC27853, an AmpC-derepressed Pseudomonas aeruginosa mutant strain (S-3028), an IMP-1-containing Pseudomonas aeruginosa strain (S-2838), a VIM-2-containing Pseudomonas aeruginosa strain (S-3779), a GES-19 and GES-20-containing Pseudomonas aeruginosa strain (S-3759), a CTX-M-15-containing Escherichia coli strain (TK-1747), a KPC-2-containing Klebsiella pneumoniae strain (Y-995), an OXA-48-containing Klebsiella pneumoniae strain (Y-1062), and an NDM-1-containing Klebsiella pneumoniae strain (Y-1007) were used. The test bacterial cells that had been cultured overnight on a Mueller Hinton agar medium were scraped off, suspended at a density equivalent to 0.5 McFarland standard, and diluted 10-fold, thereby obtaining an inoculum. A cation-adjusted Mueller Hinton medium containing a test compound was inoculated with 0.005 mL of the inoculum, and the cells were cultured at 35° C. for 16 to 20 hours. The minimum drug concentration at which the growth of bacteria was not visually observed was defined as MIC […].
(§3) An antibacterial activity evaluation test was performed in the same manner as in Test Example 1.

[2] = system: CTX-M-15-containing Escherichia coli strain (TK-1747)
Method: as §1, §2, §3

[3] = system: GES-19 and GES-20-containing Pseudomonas aeruginosa strain (S-3759)
Method: as §1, §2, §3

[4] = system: IMP-1-containing Pseudomonas aeruginosa strain (S-2838)
Method: as §1, §2, §3

[5] = system: KPC-2-containing Klebsiella pneumoniae strain (Y-995)
Method: as §1, §2, §3

[6] = system: NDM-1-containing Klebsiella pneumoniae strain (Y-1007)
Method: as §1, §2, §3

[7] = system: OXA-48-containing Klebsiella pneumoniae strain (Y-1062)
Method: as §1, §2, §3

[8] = system: Pseudomonas aeruginosa strain ATCC27853
Method: as §1, §2, §3

[9] = system: VIM-2-containing Pseudomonas aeruginosa strain (S-3779)
Method: as §1, §2, §3

With `Nc1nc(/C(=N/OC2(C(=O)O)CCC2)C(=O)N[C@@H]2C(=O)N3C[C@@](C(=O)O)(N4CCN(NC(=O)C(=O)c5ccc(O)c(O)c5Cl)C4=O)S[C@H]23)cs1` [Example 19, (3R,5R,6R)-6-((Z)-2-(2-aminothiazol-4-yl)-2-((1-carboxycyclobutoxy)imino)acetamido)-3-(3-(2-(2-chloro-3,4-dihydroxyphenyl)-2-oxoacetamido)-2-oxoimidazolidin-1-yl)-7-oxo-4-thia-1-azabicyclo[3.2.0]heptane-3-carboxylate] the MIC, Pseudomonas aeruginosa S-3028 [1] was 2 µg/mL (≈ 2.66 µM), the MIC, Escherichia coli TK-1747 [2] was 0.5 µg/mL (≈ 0.664 µM) and the MIC, Pseudomonas aeruginosa S3759 [3] was 0.25 µg/mL (≈ 0.332 µM). It also gave an MIC, Pseudomonas aeruginosa S-2838 [4] of 0.25 µg/mL (≈ 0.332 µM), an MIC, Klebsiella pneumoniae Y-995 [5] of 0.25 µg/mL (≈ 0.332 µM) and an MIC, Klebsiella pneumoniae Y-1007 [6] of under 0.06 µg/mL. It also gave an MIC, Klebsiella pneumoniae Y-1062 [7] of 0.12 µg/mL (≈ 0.159 µM), an MIC, Pseudomonas aeruginosa ATCC 27853 [8] of 0.25 µg/mL (≈ 0.332 µM) and an MIC, Pseudomonas aeruginosa S-3779 [9] of 0.25 µg/mL (≈ 0.332 µM).

With `CC(C)(O/N=C(\C(=O)N[C@@H]1C(=O)N2C[C@@](C(=O)O)(N3CCN(NC(=O)C(=O)NCCNC(=O)c4ccc(O)c(O)c4Cl)C3=O)S[C@H]12)c1csc(N)n1)C(=O)O` [Example 68, (3R,5R,6R)-6-((Z)-2-(2-aminothiazol-4-yl)-2-(((2-carboxypropan-2-yl)oxy)imino)acetamido)-3-(3-(2-((2-(2-chloro-3,4-dihydroxybenzamido)ethyl)amino)-2-oxoacetamido)-2-oxoimidazolidin-1-yl)-7-oxo-4-thia-1-azabicyclo[3.2.0]heptane-3-carboxylate] the MIC, Pseudomonas aeruginosa S-3028 [1] was 0.25 µg/mL (≈ 0.302 µM), the MIC, Escherichia coli TK-1747 [2] was 1 µg/mL (≈ 1.21 µM) and the MIC, Pseudomonas aeruginosa S3759 [3] was 4 µg/mL (≈ 4.84 µM). It also gave an MIC, Pseudomonas aeruginosa S-2838 [4] of 1 µg/mL (≈ 1.21 µM), an MIC, Klebsiella pneumoniae Y-995 [5] of 0.5 µg/mL (≈ 0.604 µM) and an MIC, Klebsiella pneumoniae Y-1007 [6] of under 0.06 µg/mL. It also gave an MIC, Klebsiella pneumoniae Y-1062 [7] of 1 µg/mL (≈ 1.21 µM), an MIC, Pseudomonas aeruginosa ATCC 27853 [8] of 1 µg/mL (≈ 1.21 µM) and an MIC, Pseudomonas aeruginosa S-3779 [9] of 2 µg/mL (≈ 2.42 µM).

Source: patent US12286440B2, “Penam derivative or salt thereof, pharmaceutical composition, and applications thereof” (priority 2018, dated 2025)
